# Data taken from patent US20200316087A1, “NOVEL COMBINATION THERAPY FOR ANXIETY DISORDERS, EPILEPSY, AND PAIN” (priority 2017, published 2020).
# System: rat E18 cortical neurons
# Assay: Microelectrode array recording of cultured cortical neuron network
# Assay type: cell-based
# Conditions: 3 μM
# Procedure: Meastro 12 well plates (Axion Biosystems, Atlanta, Ga.) were treated with a solution of 0.1% polyethylenimine for 2-4 hours, rinsed with sterile H2O and let dry overnight. Prior to plating of neurons, the MEAs were treated with solution of 20 μg/ml laminin for a minimum of 1 hour.
# Cortices isolated from […] (MEA) were obtained from BrainBits LLC, (Springfield, Ill.) and digested enzymatically with TrypLE Express (Gibco), After 15 minutes of digestion, the tissue was mechanically dissociated with a series of sterile fire-polished glass pipettes of decreasing diameter. The dissociated neurons were plated directly onto substrate-integrated MEA plates and incubated in Nb Active1 (Brainbits LLC, Springfield, Ill.) supplemented with 5% dialyzed fetal bovine serum, 0.25% Glutamax (Gibco). Cell cultures were maintained in tissue incubator (37° C., 6% CO2) and fed twice a week by exchanging half of the medium. The experiments were performed on DIV 19-25 thus allowing partial maturation of the neurons. Prior to the experiment, the cell culture media was replaced with external buffer containing: 129 mM NaCl, 5 mM KCl, 2 mM CaCl, 1 mM […], 10 mM HEPES, 10 mM glucose. To achieve hyper-excitation the external buffer was modified by removal of magnesium or by addition of 1 mM 4aminopyridine (4-AP).
# The recordings were obtained at 37° C. using Meastro System with integrated AxIS 2.3 analysis software (Axion Biosystems, Atlanta, Ga.). Channels were sampled simultaneously with a gain of 1200× and a sampling rate of 12.5 kHz/channel. On-line spike detection was done with the AXIS adaptive spike detector. For recordings, a Butterworth band-pass filter (with a high-pass cutoff of 75 Hz and low-pass cutoff of 4000 Hz) was applied along with a variable threshold spike detector set at 7× standard deviation of the rms-noise on each channel. Only wells that did show spontaneous activity (more than 0.3 Hz) on the day planned for the experiment were treated with a compound. Burst was defined as a minimum of 5 spikes occurring with an interspike interval of less than 100 ms. A minimum of one burst per minute was required for bursting analysis. Compounds were added by manual pipetting and the activity was sampled for six minutes prior and post compound addition.
# The data were normalized to baseline activity and reported as mean±standard error of the mean (SEM). For single treatment a single sample t-test was used. To compare between group effects, analysis of variance (ANOVA) with Dunnett's multiple comparison test were utilized; P<0.05 was considered significant.
compound,measurement,setting,value
"C#Cc1ccc2c(c1)C(c1ccccn1)=NCc1c(-c3cnco3)ncn1-2 [KRM-II-81, 5-(8-ethynyl-6-(pyridin-2-yl)-4H-benzo[f]imidazo[1,5-a][1,4]diazepin-3-yl)oxazole]",frequency of bursting,"hyper-excited by 1 mM 4AP, n=6, mean±SEM",50.9±8.8 % of control
same,frequency of spiking,"hyper-excited by 1 mM 4AP, n=7, mean±SEM",50.5±7.5 % of control
same,frequency of bursting,"hyper-excited by removal of magnesium, n=5, mean±SEM",54.8±7.1 % of control
same,frequency of spiking,"hyper-excited by removal of magnesium, n=7, mean±SEM",62.2±3.8 % of control
same,frequency of spiking,"normal magnesium external solution, n=7",no significant effect
same,frequency of bursting,"normal magnesium, n=7",no significant effect
same,frequency of bursting,"reduced magnesium (0.1 mM Mg++), n=4",no significant effect
same,frequency of spiking,"reduced magnesium (0.1 mM Mg++), n=4, p>0.05",small depression of spiking
